From patent US20080132412A1, “7-Amino-6-Heteroaryl-1,2,4-Triazolo[1,5-A]Pyrimidines and Their Use for Controlling Harmful Fungi” (BASF Aktiengesellschaft, priority 2004, published 2008)

System: Septoria tritici
Assay: Speckled leaf blotch pathogen Septoria tritici in the microtiter test
Type: cell-based
Conditions: 125 ppm, microtiter plate, absorption at 405 nm on day 7 after inoculation
Method: The stock solution is pipetted into a microtiter plate (MTP) and diluted to the stated active compound concentration using an aqueous, malt-based nutrient medium for fungi. An aqueous spore suspension of Septoria tritici was then added. The plates were placed in a water vapor-saturated chamber at temperatures of 18° C. Using an absorption photometer, the MTPs were measured at 405 nm on day 7 after the inoculation. The parameters measured were compared to the growth of the active compound-free control variant and the fungus- and active compound-free blank value to determine the relative growth in % of the pathogens in the individual active compounds. The relative growth at 125 ppm of compound 1 was 0%.

Cc1nc2ncnn2c(N2CCC(C)CC2)c1-c1ncncc1Cl [compound 1, 6-(5-chloropyrimidin-4-yl)-5-methyl-7-(4-methylpiperidin-1-yl)-[1,2,4]triazolo[1,5-a]pyrimidine]
relative growth: 0%
